Results as given in patent US20250025495A1, “Diagnosis and Treatment of Metabolic Syndrome with Magnesium Compositions” (priority 2023, published 2025).

What was measured:
[1] = gut dysbiosis induced with lectin-containing raw red kidney beans (RRKB); type: in vivo; conditions: by inducing heat shock factor 70
[2] = burn patients, intravenous; cited from earlier work
[3] = system: sulfate reducing bacteria (SRB); assay: SRB growth and hydrogen sulfide production with MgO; type: cell-based
Procedure: Total counts were obtained and represented as cells per ml. To account for the heavy right skew of the response variable, the analysis was conducted using a shifted log-transformation of the data and 90% confidence intervals were constructed using Cox's method. […] 90% confidence intervals were constructed using a parametric Bootstrap procedure based on a zero-inflated log-normal model where the parameters were estimated using maximum likelihood. The relationship between MgO dose level and the response (SRB Growth and H2S Concentration) was assessed with an F test based on a simple linear model. Data is presented as Mean±SEM. In this second in-vitro experiment, bacteria was grown with varying doses of MgO (0.5-2.0 mg/ml) in liquid media at 37° for 24 hours (n=3). Total counts were obtained and represented as cells per ml (FIG. 2A). To account for the heavy right skew of the response variable, the analysis was conducted using a shifted log-transformation of the data and 90% confidence intervals were constructed using Cox's method. Hydrogen sulfide production of SRB grown for 24 hours with varying concentrations of MgO as represented as parts per billion (ppb) (FIG. 2B). […] The relationship between MgO dose level and the response (SRB Growth and H2S Concentration) was assessed with an F test based on a simple linear model Data is presented as Mean±SEM.

NC(=O)CC[C@H](N)C(=O)O [glutamine]
reversal of leaky gut and microbial translocation to the liver [1]: able to reverse these effects | endotoxemia and increased intestinal permeability [2]: reversed

[Mg] [magnesium (Mg), magnesium]
protection of the intestinal barrier by suppressing SRB and blocking production of hydrogen sulfide [3]: effective in protecting the intestinal barrier

[O]=[Mg] [magnesium oxide]
reversal of SRB effects (increased intestinal permeability, SRB proliferation, hydrogen sulfide production) [3]: could be reversed
